Reference: patent US10544103B2, “5-HT2 antagonists” (ANAMAR AB, priority 2015, dated 2020)

Legend:
[1] = system: bleomycin-induced pulmonary fibrosis; assay: Bleomycin-induced pulmonary fibrosis model in mice; type: in vivo, mice (C57BL/6); details: 28 days
Protocol: Pulmonary fibrosis was induced in female C57BL/6 mice by intratracheal instillation of bleomycin in saline (50 uL, 0.5 mg/mL). Treatment was initiated at the day of intratracheal instillation and continued to day 28. The mice (8 animals/group) were orally treated twice daily with 25 or 75 mg/kg (R)-3-(2-Hydroxyphenyl)-4-methyl-4,5-dihydro-1H-pyrazole-1-carboximidamide (Example 36, Compound 3) dissolved in ddH2O. Nintedanib at 30 mg/kg in ddH2O, p.o., twice daily, was used as a positive control. Vehicle-treated bleomycin-challenged mice and vehicle-treated non-fibrotic mice served as controls. The animals were sacrificed after 28 days and the fibrotic area of the lung was determined by histological evaluation of Sirius Red-stained sections according to standard protocol. The collagen content of lung tissue was measured using the hydroxyproline collagen assay and the number of myofibroblasts was quantified by staining for α-smooth muscle actin (α-SMA) in paraffin embedded sections.

[2] = system: Normal human lung fibroblasts (NHLF); assay: Collagen production in normal human lung fibroblasts (PIP ELISA); type: cell-based; details: 1 and 10 μM; stimulation with 5 ng/mL TGF-β1 and 5-HT; 48 hours
Protocol: Normal human lung fibroblasts (NHLF, Lonza) were cultured in FGM-2 full medium (+FBS) according to manufacturer's instructions. When confluent, cells were seeded onto 24-well tissue culture plates at 100.000 cells/well (4 wells per condition), until reaching confluence. Once cells were confluent they were serum starved overnight in serum free FGM-2 medium. After 16 hours the serum free medium was removed and cells were treated with (R)-3-(2-hydroxyphenyl)-4-methyl-4,5-dihydro-1H-pyrazole-1-carboximidamide (Example 36, Compound 3) at 1 and 10 μM (vehicle ddH2O). The cells were then stimulated with 5 ng/mL human recombinant TGF-β1 alone or in combination with 1 μM or 10 μM 5-HT. All stimuli were prepared in serum free FGM-2 media (1 mL volume/well). Unstimulated cells received serum free FGM-2 medium alone. After 48 hours the supernatants were collected and stored at −80° C. Collagen production was analyzed in supernatants using procollagen type I C-peptide (PIP) ELISA (Takara Bio # MK1010). Cell viability was tested using a LDH assay (Abcam # Ab102526).

5-HT2B receptor [3] = biological target: T1, 5-HT2B receptor (Homo sapiens, UniProt P41595); assay: 5-HT2B receptor antagonism, inhibition of 5-HT stimulated IP-1 accumulation (HTRF) in CHO-K1 cells; type: cell-based; details: % inhibition of 5-HT (5 nM) induced effect
T1 construct: host or cells: CHO-K1
T1 sequence (P41595 whole entry): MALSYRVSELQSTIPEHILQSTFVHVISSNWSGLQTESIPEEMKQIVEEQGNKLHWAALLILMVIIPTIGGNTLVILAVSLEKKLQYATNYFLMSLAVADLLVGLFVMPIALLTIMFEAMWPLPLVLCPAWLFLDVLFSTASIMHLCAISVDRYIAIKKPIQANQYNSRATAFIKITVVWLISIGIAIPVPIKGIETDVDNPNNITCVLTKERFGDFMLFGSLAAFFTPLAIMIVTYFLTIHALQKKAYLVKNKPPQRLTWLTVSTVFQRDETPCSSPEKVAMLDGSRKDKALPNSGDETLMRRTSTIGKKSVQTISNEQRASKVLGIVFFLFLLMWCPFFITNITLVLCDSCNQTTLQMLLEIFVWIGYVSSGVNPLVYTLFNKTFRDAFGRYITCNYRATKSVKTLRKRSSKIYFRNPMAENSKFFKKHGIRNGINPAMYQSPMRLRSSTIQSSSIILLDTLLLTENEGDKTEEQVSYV
Protocol: (§1) 5-HT2B receptor antagonism (performed at Eurofins Panlabs Taiwan, Ltd.) was determined in CHO-K1 cells expressing human receptor protein as inhibition of 5-HT (5 nM) stimulated IP-1 accumulation measured by HTRF quantitation. SB 206553 was used as a standard reference compound. The antagonistic response is expressed as % inhibition of the 5-HT induced effect.

TNF-α plasma levels = assay: Reduction of TNF-α plasma levels in LPS-induced acute inflammation in mice; type: in vivo, mice (BALB/c); details: for TNF-α: plasma 90 min after LPS
Protocol: Reduction of TNF-α plasma levels in the LPS-induced acute inflammation in mice was used to determine the in vivo anti-inflammatory properties of the compounds.
Mice (BALB/c, female, approx. 20 g, 8 mice/group) were treated with the test compound perorally (10 or 30 mg/kg in water) 30 min prior to LPS treatment (10 ug in saline, intraperitoneally, serotype 055:B5). Alternatively, the test compound was administered subcutaneously in the neck (10 or 30 mg/kg in 10% PEG400 in saline) 15 min prior to LPS treatment. Blood samples were collected 90 min after LPS treatment and plasma TNF-α concentrations were determined in duplicates by ELISA.

5-HT2B receptor [4] = biological target: T1, 5-HT2B receptor; assay: 5-HT2B receptor agonism, IP-1 accumulation in CHO-K1 cells without prior 5-HT stimulation; type: cell-based; details: % of IP-1 accumulation induced by 5-HT (1 uM)
Protocol: as §1
5-HT2B receptor agonism (performed at Eurofins Panlabs Taiwan, Ltd.) was determined in the same model as described above in Ex. 117. without prior stimulation with 5-HT. The agonistic response is expressed as % of the IP-1 accumulation induced by 5-HT (1 uM) stimulation.

5-HT2B receptor [5] = biological target: T1, 5-HT2B receptor; assay: 5-HT2B receptor binding, 3H-LSD ligand displacement assay
Protocol: 5-HT2B receptor binding (performed at Eurofins Panlabs Taiwan, Ltd.) to human receptor protein expressed in CHO-K1 cells was determined in a ligand displacement assay using ^3H-lysergic acid diethylamide (LSD) as radioligand and ketanserine as a standard reference compound. Data is presented as % displacement of radioligand at indicated compound concentrations, see Table 1 and Table 2.

| Structure (SMILES) | inhibition at 0.01 µM (5-HT2B receptor [3]) [%] | inhibition at 0.1 µM (5-HT2B receptor [3]) [%] | inhibition at 1 µM (5-HT2B receptor [3]) [%] | inhibition at 10 µM (5-HT2B receptor [3]) [%] | TNF-α (TNF-α plasma levels; 10 mg/kg p.o. (water)) [pg/mL] | TNF-α (TNF-α plasma levels; 30 mg/kg p.o. (water)) [pg/mL] | Effect on TNF-α plasma levels (in words) (TNF-α plasma levels; p.o. administration) | activation at 0.01 µM (5-HT2B receptor [4]) [%] | activation at 0.1 µM (5-HT2B receptor [4]) [%] | activation at 1 µM (5-HT2B receptor [4]) [%] | activation at 10 µM (5-HT2B receptor [4]) [%] | TNF-α (TNF-α plasma levels; 10 mg/kg s.c. (PEG400/saline)) [pg/mL] | other results |
| --- | --- | --- | --- | --- | --- | --- | --- | --- | --- | --- | --- | --- | --- |
| C[C@@H]1CN(C(=N)N)N=C1c1ccccc1O (single isomer, unassigned) [Example 36] | – | – | – | – | – | – | – | – | – | – | – | – | Changes in any of the outcomes (fibrotic area, myofibroblasts, hydroxyproline) ([1]; 25 mg/kg bid oral): No statistically significant changes; Fibrotic area (A) ([1]; 75 mg/kg bid oral): reduced the fibrotic area; Hydroxyproline content (C) ([1]; 75 mg/kg bid oral): reduced the hydroxyproline content; Myofibroblast differentiation (B) ([1]; 75 mg/kg bid oral): inhibited myofibroblast differentiation; Production of collagens (in words) [2]: significantly reduced the production of collagens |
| Cl.N=C(N)N1CCC(c2ccccc2O)=N1 [Example 3, 3-(2-Hydroxyphenyl)-4,5-dihydro-1H-pyrazole-1-carboximidamide] | 14 | 38 | 96 | 103 | 5767 | 3992 | dose-dependently reduced TNF-α plasma levels | 1 | -2 | -2 | -7 | – | – |
| CC1CN(C(=N)N)N=C1c1ccccc1O.Cl (centres unmarked) [Example 17, 3-(2-Hydroxyphenyl)-4-methyl-4,5-dihydro-1H-pyrazole-1-carboximidamide] | 70 | 96 | 100 | 103 | 4139 | 4062 | reduced TNF-α levels | 3 | 7 | 2 | -2 | 2708 | inhibition at 0.01 µM (5-HT2B receptor [5]; 0.01 uM compound): 54%; inhibition at 0.1 µM (5-HT2B receptor [5]; 0.1 uM compound): 91%; inhibition at 1 µM (5-HT2B receptor [5]; 1 uM compound): 100%; inhibition at 10 µM (5-HT2B receptor [5]; 10 uM compound): 100%; inhibition at 0.001 µM (5-HT2B receptor [3]; 0.001 uM): 31%; TNF-α (TNF-α plasma levels; 30 mg/kg s.c. (PEG400/saline)): 1397 pg/mL; Effect on TNF-α plasma levels (in words) (TNF-α plasma levels; subcutaneous (s.c.) administration): dose-dependent effects; Anti-inflammatory effect compared with the reference compound (TNF-α plasma levels; versus RS127545 (so in the source)): equal or higher anti-inflammatory effects; activation at 0.001 µM (5-HT2B receptor [4]; 0.001 uM): 1% |
| COC(=O)c1ccc2c(c1)NC(=O)/C2=C(\Nc1ccc(N(C)C(=O)CN2CCN(C)CC2)cc1)c1ccccc1 [Nintedanib, reference compound] | – | – | – | – | – | – | – | – | – | – | – | – | Fibrotic area (A) ([1]; 30 mg/kg bid p.o.): reduced the fibrotic area; Hydroxyproline content (C) ([1]; 30 mg/kg bid p.o.): reduced the hydroxyproline content; Myofibroblast differentiation (B) ([1]; 30 mg/kg bid p.o.): inhibited myofibroblast differentiation |
| CC(C)c1cc(-c2ccc(F)c3ccccc23)nc(N)n1 [RS127445, reference compound] | – | – | – | – | – | – | – | – | – | – | – | 3215 | – |
